In patent US20260256143A1, “HERBICIDAL COMPOSITION AND METHOD FOR CONTROLLING WEEDS” (Enko Chem, Inc., priority 2023, published 2026):
Like-named read-outs stand apart in the source and are kept apart here.

Key:
[1] = test system: AMATU; experiment: Field test, soil residual activity on bare soil (Example 71); assay type: in vivo, Amaranthus rudis; details: Amaranthus tuberculatus, 1008 h, 6 weeks after application, read-out: % growth inhibition AMATU
Description: (§1) Compound 1 and Compound 1 mixed with pyroxasulfone were tested at different field locations to evaluate the herbicides efficacy for controlling weeds by soil residual activity. All herbicide treatments were applied with a backpack CO2 pressurized sprayer at 190 L/ha volume. The herbicide applications were made to bare soil free of any vegetation to assess the efficacy of the different herbicides to suppress weeds germination and development. The herbicide treatments included Compound 1 formulated as 10% emulsified concentrate, pyroxasulfone as a commercial formulation (ZIDUA SC, BASF), or a mixture of Compound 1 and pyroxasulfone products prepared as a “tank-mix” before the field application. All herbicide field spray solution included ammonium sulfate final solution concentration of 2%. Different weeds species were assessed at the separate field locations. For each species, the herbicide efficacy to control weeds, assessed as % of suppressed weeds plants relative to the untreated control plots, was evaluated at 6 weeks after the herbicide application.

[2] = test system: AMAPA; experiment: Greenhouse pre-emergence residual test (Example 73); assay type: in vivo, Amaranthus palmeri; details: Amaranthus palmeri, pre-emergence; Dose 90 g a.i./ha; 17-21 DAT; read-out: Pre-emergence percent weed growth and germination inhibition AMAPA
Description: (§2) Compound 1 was tested at several doses for residual weed control efficacy by itself or in combination as a tank mix with commercial herbicides. The following commercial products were used in tank mix with a 10% active emulsifiable concentrate formulation of Compound 1: S-metolachlor (Dual Magnum®, Syngenta), mesotrione (Callisto®, Syngenta), pyroxasulfone (Zidua® SC, BASF), metribuzin (Tricor DF™, United Phosphorus, Inc).
(§3) Accordingly, weed seeds were planted in 2-inch pots containing custom field soil mix (sandy loam with 3.3% organic matter, pH 7.0) and covered with a fine layer of the same soil. Three replicate pots were treated with each compound. Treatment consisting of the above formulation excluding active compound was applied as a treatment control (TC). Pots were treated with the test compound solution in a laboratory spray chamber fitted with 8003 even fan nozzles calibrated to deliver 187-200 L ha^−1 at 269 kPa. All treatments included the following inert ingredients in the final formulation; 1% Crop Oil Concentrate (v/v) (AGRI-DEX, Helena Agri) and 2.5% Ammonium sulphate (w/v). Compound 1 was incorporated into the soil by simulating rainfall equivalent to 0.2 mm using the same track sprayer. Subsequently, pots were irrigated from the bottom until weed control evaluation. Pots were placed back in the greenhouse and evaluated for percentage visual growth and germination inhibition compared to TC 17-21 days after treatment (DAT). Complete growth inhibition is represented by 100%.

[3] = test system: AMATU; experiment: as above; assay type: in vivo, Amaranthus rudis; details: Amaranthus tuberculatus, pre-emergence; Dose 90 g a.i./ha; 17-21 DAT; read-out: Pre-emergence percent weed growth and germination inhibition AMATU
Description: as §2, §3

[4] = test system: KCHSC; experiment: as above; assay type: in vivo, Bassia scoparia; details: Bassia scoparia, pre-emergence; Dose 90 g a.i./ha; 17-21 DAT; read-out: Pre-emergence percent weed growth and germination inhibition KCHSC
Description: as §2, §3

[5] = test system: SETFA; experiment: Field test, soil residual activity on bare soil (Example 71); assay type: in vivo; details: Setaria faberi, 1008 h, Loc 4, pyroxasulfone 90 g a.i./ha, 6 weeks after application, read-out: % growth inhibition SETFA
Description: as §1

[6] = test system: AMAPA; experiment: as above; assay type: in vivo; details: Amaranthus palmeri, 1008 h, 6 weeks after application, read-out: % growth inhibition AMAPA
Description: as §1

[7] = test system: ABUTH; experiment: as above; assay type: in vivo; details: Abutilon theophrasti, 1008 h, 6 weeks after application, read-out: % growth inhibition ABUTH
Description: as §1

[8] = test system: DIGSA; experiment: as above; assay type: in vivo; details: Digitaria sanguinalis, 1008 h, Loc 5, pyroxasulfone 90 g a.i./ha, 6 weeks after application, read-out: % growth inhibition DIGSA
Description: as §1

[9] = test system: CHEAL; experiment: as above; assay type: in vivo; details: Chenopodium album, 1008 h, Loc 6, pyroxasulfone 90 g a.i./ha, 6 weeks after application, read-out: % growth inhibition CHEAL
Description: as §1

[10] = test system: ALOMY; experiment: Greenhouse pre-emergence residual test (Example 73); assay type: in vivo, Alopecurus myosuroides; details: Alopecurus myosuroides, pre-emergence; Dose 90 g a.i./ha; 17-21 DAT; read-out: Pre-emergence percent weed growth and germination inhibition ALOMY
Description: as §2, §3

[11] = test system: DIGSA; experiment: as above; assay type: in vivo, Digitaria sanguinalis; details: Digitaria sanguinalis, pre-emergence; Dose 90 g a.i./ha; 17-21 DAT; read-out: Pre-emergence percent weed growth and germination inhibition DIGSA
Description: as §2, §3

[12] = test system: ECHCG; experiment: as above; assay type: in vivo, Echinochloa crus-galli; details: Echinochloa crus-galli, pre-emergence; Dose 90 g a.i./ha; 17-21 DAT; read-out: Pre-emergence percent weed growth and germination inhibition ECHCG
Description: as §2, §3

[13] = test system: CHEAL; experiment: as above; assay type: in vivo, Chenopodium album; details: Chenopodium album, pre-emergence; Dose 90 g a.i./ha; 17-21 DAT; read-out: Pre-emergence percent weed growth and germination inhibition CHEAL
Description: as §2, §3

[14] = Loc 3, pyroxasulfone 90 g a.i./ha

`Cn1nc(C(F)(F)F)c(CS(=O)(=O)C2=NOC(C)(C)C2)c1OC(F)F` [pyroxasulfone] showed an inhibition at 90 g/ha ([1]; Loc 1, pyroxasulfone 90 g a.i./ha) of 97%, an inhibition at 90 g/ha ([1]; Loc 2, pyroxasulfone 90 g a.i./ha) of 74% and an inhibition at 90 g/ha [2] of 73%. The inhibition at 90 g/ha [3] was 83%, the inhibition at 90 g/ha [4] was 80% and the inhibition at 90 g/ha [5] was 77%. For the same compound, the inhibition at 90 g/ha [6, 14] was 34%, the inhibition at 90 g/ha ([6]; Loc 5, pyroxasulfone 90 g a.i./ha) was 75% and the inhibition at 90 g/ha [7, 14] was 44%. The inhibition at 90 g/ha ([7]; Loc 4, pyroxasulfone 90 g a.i./ha) was 60%, the inhibition at 90 g/ha ([7]; Loc 6, pyroxasulfone 90 g a.i./ha) was 50% and the inhibition at 90 g/ha [8] was 74%. It also gave an inhibition at 90 g/ha [9] of 88%, an inhibition at 90 g/ha [10] of 47% and an inhibition at 90 g/ha [11] of 78%. The inhibition at 90 g/ha [12] was 100% and the inhibition at 90 g/ha [13] was 100%.
